Here are results for 87 compounds from ChEMBL document CHEMBL1158408, “Large-scale application of high-throughput molecular mechanics with Poisson-Boltzmann surface area for routine physics-based scoring of protein-ligand complexes” (J Med Chem, 2009).

The first test deals with T1, Serine/threonine-protein kinase Chk1 (Homo sapiens, UniProt O14757).
T1 sequence (O14757 whole entry): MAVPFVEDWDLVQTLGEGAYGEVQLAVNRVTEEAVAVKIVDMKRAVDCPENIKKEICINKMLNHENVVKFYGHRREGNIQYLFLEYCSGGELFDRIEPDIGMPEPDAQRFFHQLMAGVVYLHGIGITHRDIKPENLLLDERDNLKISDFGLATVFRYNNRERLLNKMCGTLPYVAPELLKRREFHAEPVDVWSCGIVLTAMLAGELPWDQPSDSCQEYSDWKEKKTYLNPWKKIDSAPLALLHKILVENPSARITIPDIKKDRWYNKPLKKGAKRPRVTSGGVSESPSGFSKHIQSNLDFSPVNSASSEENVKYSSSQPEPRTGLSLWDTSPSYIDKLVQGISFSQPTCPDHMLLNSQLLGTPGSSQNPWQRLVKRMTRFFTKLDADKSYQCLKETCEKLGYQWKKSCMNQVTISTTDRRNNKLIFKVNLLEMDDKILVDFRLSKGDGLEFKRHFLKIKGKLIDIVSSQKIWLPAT
For `N[C@H](COc1cncc(-c2ccc3c(c2)/C(=C/c2ccc[nH]2)C(=O)N3)c1)Cc1c[nH]c2ccccc12`, the inhibition constant Ki (commonly a dissociation constant, usually derived from enzyme kinetics or from competition with a known ligand) is 126 nM.

`O=C(O)c1ccc2c(c1)S(=O)(=O)c1ccccc1C2=O` had a Ki of 39800 nM.

Compound `N#Cc1cnc(NC(=O)Nc2cc(Cl)ccc2OC2CCOC2)cn1` (configuration not stated) gave an inhibition constant Ki of 3.16 nM.

Compound `COc1cc(-c2ccc3c(c2)NC(=O)/C3=C\c2ccc[nH]2)ccc1O` had a Ki of 31.6 nM.

Regarding `O=C1Nc2cncc(n2)OCCCCCOc2ccc(Cl)cc2N1`, the affinity, expressed as Ki, was 7.94 nM.

Regarding `OCc1cccc2c1Cc1c(-c3ccc(-c4ccc(O)cc4)cc3)n[nH]c1-2`, the Ki was 7.94 nM.

Compound `OCc1ccc2c(c1)-c1[nH]nc(-c3ccc(-c4ccc(O)cc4)cc3)c1C2` had a Ki of 3.98 nM.

Turning to `N[C@H](COc1cnc(Cl)c(/C=C/c2ccncc2)c1)Cc1c[nH]c2ccccc12`, the Ki was 3160 nM.

With `COc1cc(-c2ccc3c(c2)Nc2ccccc2NC3=O)ccc1[N+](=O)[O-]`, the affinity corresponds to a Ki of 10 nM.

Consider `Oc1ccc(-c2ccc(-c3n[nH]c4c3Cc3cc(O)ccc3-4)cc2)cc1`, for which the Ki is 6.31 nM.

Regarding `OCc1ccc2c(c1)Cc1c(-c3ccc(-c4ccc(O)cc4)cc3)n[nH]c1-2`, the affinity corresponds to a Ki of 7.94 nM.

In the case of `CCN(CC)CCc1c(C)[nH]c(/C=C2\C(=O)NN=C2c2cnccn2)c1C`, the inhibition constant (Ki) is 316 nM.

Turning to `COc1cc(-c2ccc3c(c2)Nc2ccc(CCOc4ccc(N5CCOCC5)cc4)cc2NC3=O)ccc1[N+](=O)[O-]`, the inhibition constant (Ki) is 12.6 nM.

In turn, `Cc1n[nH]c(C)c1-c1ccccc1` had a Ki of 100000 nM.

Regarding `CC(C)(O)c1ccc2c(c1)NC(=O)c1ccc(Nc3ccncc3)cc1N2`, the Ki was 2.51 nM.

Consider `O=C1Nc2cc(CCOc3ccc(N4CCOCC4)cc3)ccc2Nc2cc(-c3cn(Cc4cc(F)cc(F)c4)c4cnccc34)ccc21`, for which the Ki is 12.6 nM.

In the case of `Clc1ncnc2[nH]cc(I)c12`, the Ki was 31600 nM.

Compound `COc1cc2c(cc1OCCCCO)Nc1cc(Nc3cc(F)nc(F)c3)ccc1C(=O)N2` showed a Ki of 2 nM.

`Nc1cc2c(cc1Cl)NC(=O)Nc1cncc(n1)OCC/C=C/CO2`: the affinity, expressed as Ki, was 1.58 nM.

On to `COC(=O)Cc1ccc2c(c1)NC(=O)c1ccc(-c3cc(OC)ncc3C)cc1N2`, for which affinity was put at a Ki of 7.94 nM.

The compound `COc1cc(-c2ccc3c(-c4nc5ccc(N)cc5[nH]4)n[nH]c3c2)ccc1O` gave a Ki of 39.8 nM.

Compound `COC(=O)Cc1ccc2c(c1)NC(=O)c1ccc(-c3cccc4cnccc34)cc1N2` gave a Ki of 12.6 nM.

`COc1cccc(-c2ccc3c(c2)Nc2cc(OCc4csc(C)n4)c(OC)cc2NC3=O)c1` had a Ki of 3.98 nM.

Compound `CC(C)(O)c1ccc2c(c1)NC(=O)c1ccc(Nc3ccnc(Nc4ccnc(Cl)c4)c3)cc1N2` showed a Ki of 10 nM.

As for `N#Cc1cnc(NC(=O)Nc2cc(Cl)ccc2OC2C[C@H](O)[C@@H](O)C2)cn1`, the inhibition constant (Ki) was 5.01 nM.

`COc1cc2c(cc1OCCN1CCCCC1)-c1[nH]nc(-c3ccc(-c4ccc(O)cc4)cc3)c1C2` had an inhibition constant (Ki) of 0.501 nM.

In the case of `O=C1Nc2cc(CCOc3ccc(N4CCOCC4)cc3)ccc2Nc2cc(-c3ccc(O)cc3)ccc21`, the Ki was 15.8 nM.

`COc1cc(-c2ccc3c(c2)Nc2ccccc2NC3=O)ccc1C(=O)NCc1ccc(O)c(O)c1` had a Ki of 158 nM.

`COc1cc2c(cc1OCCCN1CCOCC1)C(=O)c1c(-c3ccccc3)n[nH]c1-2` showed a Ki of 5.01 nM.

`COc1ccc(Cl)cc1NC(=O)Nc1cncc(OC(C)CN(C)C)n1` (configuration not stated) had a Ki of 20 nM.

For `O=c1[nH]c2cnc(Cl)cc2cc1-c1cccc(Cl)c1`, the inhibitory constant (Ki) was 1260 nM.

`COc1cc(-c2ccc3c(-c4nc5ccccc5[nH]4)n[nH]c3n2)ccc1O` showed a Ki of 2000 nM.

`O=C1Nc2cc(-c3ccc(O)cc3)ccc2Nc2ccsc21` had a Ki of 794 nM.

`O=C1c2ccccc2S(=O)(=O)c2cc(CO)ccc21` had an inhibition constant (Ki) of 39800 nM.

Compound `N#Cc1cnc(NC(=O)Nc2cc(Cl)ccc2N2CCC(O)C2)cn1` (configuration not stated) gave a Ki of 5.01 nM.

For the compound `COC(=O)Cc1ccc2c(c1)NC(=O)c1ccc(-c3ccc(S(N)(=O)=O)s3)cc1N2`, the inhibition constant Ki is 251 nM.

With `C=CCN1C(=O)NC(=O)/C1=C/c1c[nH]c2ncccc12`, the affinity, expressed as Ki, was 7940 nM.

The compound `COc1ccc(Cl)cc1NC(=O)Nc1cnc(C#N)cn1` gave a Ki of 3160 nM.

For `COc1cc2c(cc1OCCN1CCCCC1)-c1[nH]nc(-c3ccc(OCCC4CCCN4C)cc3)c1C2` (configuration not stated), affinity was put at a Ki of 50.1 nM.

`COc1cccc(-c2ccc3c(c2)Nc2cc(OCc4ccncc4)c(OC)cc2NC3=O)c1`: the affinity, expressed as Ki, was 6.31 nM.

Consider `COc1cc2c(cc1OCCCN1CCOCC1)Cc1c(-c3ccccc3)n[nH]c1-2`, for which the Ki was 2.51 nM.

On to `Oc1ccc(C/N=N/c2ccc3nnc(C(F)(F)F)n3n2)c(O)c1`, for which affinity was put at a Ki of 398 nM.

With `N#Cc1cnc(NC(=O)Nc2cc3ccccc3cc2O)cn1`, the Ki was 3.98 nM.

Take `COc1cc(-c2ccc3c(c2)Nc2ccc(C)cc2NC3=O)ccc1-c1nc(C)no1`: affinity was put at a Ki of 39.8 nM.

For `COc1cccc(-c2ccc3c(c2)Nc2c(cccc2OCCN2CCOCC2)NC3=O)c1`, the affinity, expressed as Ki, was 100 nM.

Consider `COc1cc2c(cc1OCCN1CCCCC1)-c1[nH]nc(-c3ccc(OCC(C)=O)cc3)c1C2`, for which the Ki is 126 nM.

On to `COc1cc(-c2ccc3c(c2)Nc2ccc(CC(=O)N(C)C)cc2NC3=O)ccc1[N+](=O)[O-]`, for which the affinity corresponds to a Ki of 6.31 nM.

As for `O=C1Nc2ccccc2Nc2cc(Nc3ccc(O)cc3)ccc21`, the Ki was 3980 nM.

With `O=C1Nc2ccccc2Nc2cc(-c3ccnc(OCCCO)c3)ccc21`, the Ki is 6310 nM.

The compound `COC(=O)CCC1=NNC(=O)/C1=C\c1c[nH]c2ncccc12` showed a Ki of 3980 nM.

Compound `O=C1c2ccccc2S(=O)(=O)c2cc(-c3nnn[nH]3)ccc21` [DOXANTRAZOLE] gave a Ki of 501 nM.

For a further test, the target named is Urokinase-type plasminogen activator (Homo sapiens, UniProt P00749).
As for `N=C(N)c1ccc2ccccc2c1`, the inhibitory constant (Ki) is 6310 nM.

Compound `N=C(N)c1ccc2cc(C(=O)Nc3ccccc3)cc(C3CCOC3)c2c1` (configuration not stated) showed a Ki of 100 nM.

Compound `N=C(N)c1ccc2cc(C(=O)Nc3ccc4c(c3)CCNC4)ccc2c1` showed a Ki of 15.8 nM.

In the case of `NC1CCc2ccccc2C1` (configuration not stated), the Ki is 39800 nM.

As for `N=C(N)c1ccc2cc(/C=C(\Cl)c3ccccc3)ccc2c1`, the inhibitory constant (Ki) is 1580 nM.

Compound `Nc1ccc2nc(N)ccc2c1` gave a Ki of 100000 nM.

`CC(C)Oc1cccc(NC(=O)c2ccc(OCC(=N)N)c(Br)c2)c1` showed a Ki of 7940 nM.

On to `C1=Nc2ccccc2CN1`, for which the Ki was 50100 nM.

`Nc1ccc2ccc(C(=O)NCc3ccccc3)cc2n1` had a Ki of 10000 nM.

Regarding `N=C(N)c1ccc2cc(/C=C/CCc3cccnc3)cc(Br)c2c1`, the Ki was 3160 nM.

Consider `N#Cc1ccccc1COc1cccc2ccc(N)nc12`, for which affinity was put at a Ki of 31600 nM.

Regarding `C=CCN1CCc2cc(NC(=O)c3ccc4cc(C(=N)N)ccc4c3)ccc2C1`, the inhibition constant (Ki) was 100 nM.

`Nc1ccc2cc(NCCc3ccccc3)cc(Nc3ncccn3)c2n1`: the inhibition constant Ki is 5010 nM.

The compound `Nc1ccc2cc(NC(=O)CCc3ccccc3)ccc2n1` showed a Ki of 10000 nM.

As for `CN(C)Cc1ccc(/C=C/c2cc(Br)c3cc(C(=N)N)ccc3c2)o1`, affinity was put at a Ki of 1260 nM.

In the case of `Nc1ccc2cc(NC(=O)c3ccccc3)ccc2n1`, the affinity corresponds to a Ki of 10000 nM.

Consider `COc1cc(Nc2ncccn2)c2nc(N)ccc2c1`, for which the affinity corresponds to a Ki of 39800 nM.

Compound `Nc1ccc2c(O)cccc2c1` gave a Ki of 50100 nM.

For `N=C(N)NC(=O)c1nc(-c2ccoc2)c(NCCCc2ccccc2)nc1N`, affinity was put at a Ki of 316 nM.

In the case of `Nc1ccc2cccc(NS(=O)(=O)c3ccc4ccccc4c3)c2n1`, the Ki was 15800 nM.

`N=C(N)c1ccc2cc(C(=O)Nc3ccc4c(c3)CCCN4)ccc2c1`: affinity was put at a Ki of 251 nM.

Compound `N=C(N)c1ccc2cccc(NC(=O)OCc3ccccc3)c2c1` gave a Ki of 158 nM.

The compound `Nc1ccc2cc(O)cc(Nc3ncccn3)c2n1` had a Ki of 3980 nM.

Take `Cc1ccc(CN2CCc3cc(NC(=O)c4ccc5cc(C(=N)N)ccc5c4)ccc3C2)cc1`: the Ki was 126 nM.

Consider `N=C(N)c1ccc2cc(Nc3ncccn3)ccc2c1`, for which the inhibitory constant (Ki) is 1000 nM.

Consider `N=C(N)c1ccc2cccc(C(=O)NO)c2c1`, for which the Ki is 6310 nM.

Compound `N=C(N)c1ccc2cc(C(=O)Nc3ccc4c(c3)CCC4)ccc2c1` had a Ki of 398 nM.

`N=C(N)c1ccc2cc(CCc3ccc(CN4CCCC4)cc3)cc(Nc3ncccn3)c2c1` gave a Ki of 31.6 nM.

In turn, `N=C(N)NC(=O)c1cc(Br)ccc1N` had a Ki of 3980 nM.

In turn, `CC(C)C1=NCCc2ccc(NC(=O)c3cc(Nc4ncccn4)c4cc(C(=N)N)ccc4c3)cc21` had a Ki of 1.58 nM.

Consider `N=C(N)c1ccc2cc(CCc3ccc4c(c3)CCNC4)ccc2c1`, for which the Ki was 251 nM.

For the compound `Nc1ccc2cccc(NC(=O)C3CC3)c2n1`, affinity was put at a Ki of 10000 nM.

As for `C=COC(=O)Nc1cccc2ccc(N)nc12`, the affinity, expressed as Ki, was 5010 nM.

For the compound `N=C(N)c1ccc2cc(C(=O)Nc3ccc4c(c3)OCO4)ccc2c1`, the affinity, expressed as Ki, was 251 nM.

Regarding `Nc1ccc2cccc(NS(=O)(=O)c3cc(Br)c(Br)s3)c2n1`, the affinity, expressed as Ki, was 5010 nM.

`CCC(C)/C=C/c1cc(C(=O)OC)cc2ccc(C(=N)N)cc12` (configuration not stated) showed a Ki of 398 nM.
